Experiment [1] deals with S. aureus. In words: Combinational study (checkerboard microdilution) with standard drugs. Particulars: S. aureus. The experiment is classed as cell-based. On the procedure:
The Fractional Inhibitory Concentration Index (FICI) was calculated for each test compound and reference drug to find the combinational effect.
In a 96-well flat bottom plate, the reference drug with 4× MIC was serially diluted horizontally. The test compounds with 4× MIC were serially diluted two-fold outside the plate in 1.5 mL Eppendorf's using Mueller Hinton Broth (MHB). These two serially diluted compounds were combined to create drug-compound combinations in the plate. The reference drug (horizontally) and tested compounds (vertically) alone were serially diluted for MIC determination. 100 μL of the standardized bacterial inoculum with a turbidity equivalent to a 0.5 McFarland standard were diluted 1 : 100 in Mueller Hinton Broth and inoculated in the plates. The plates were incubated for 24 hours at 37 °C. After incubation, 10 μL of freshly prepared Alamar blue (Himedia) was added to each well of the plate, and the plates were further incubated at 37 °C for 30 minutes. After incubation, the plates were visually observed. […] The FICI was calculated using the formula FICI = FIC of compound + FIC of drug. The calculation followed is FICI (CA/(MICA)) + (CB/(MICB)), where CA is the MIC of the compound in combination, CB is the MIC of the drug in combination, and MICA and MICB are the MIC values of individual compounds and drugs, respectively. The range selection followed the interpretation criteria. The FICI range of 0.5 to 4 indicates indifference, ≤ or =0.5 indicates synergy and >4 indicates antagonism.[57]

In experiment [2] the test system is S. aureus ATCC 29213. In words: MIC, broth microdilution (CLSI), Alamar blue. The experiment is classed as cell-based. To be noted: S. aureus ATCC 29213, 24 hours at 37 °C, read-out: Minimum inhibitory concentration (MIC) S. aureus. The source says: (§1) The bacterial strains S. aureus ATCC 29213, MRSA ATCC 15187, E. coli ATCC 25922, and P. aeruginosa ATCC 27853 were obtained from ATCC (American Type Culture Collection). Cation-adjusted Mueller–Hinton broth (MHB; Becton–Dickinson, Cockeysville, MD) was used to determine the minimum inhibitory concentration (MIC). Mueller–Hinton agar (MHA; Becton–Dickinson) was used for minimum bactericidal concentration (MBC) studies. Alamar blue (Himedia) was used to detect the MIC value.
(§2) The antibacterial activity of the compounds against S. aureus ATCC 29213, MRSA ATCC 15187, E. coli ATCC 25922, and P. aeruginosa ATCC 27853 was determined through a broth microdilution method according to the guidelines of the Clinical and Laboratory Standards Institute (CLSI).[50] […] Growth control and media control were employed along with 2% DMSO as vehicle control.
(§3) In a 96-well flat bottom plate, the test compounds were two-fold serially diluted in Mueller Hinton Broth (MHB). The final concentrations of the compounds ranged from 100 to 0.08 μM. 100 μL of standardized bacterial inoculum with turbidity equivalent to 0.5 McFarland standard (1.5 × 10^8 CFU mL^−1) was diluted 1 : 100 (1.5 × 10^6 CFU mL^−1) in Mueller Hinton Broth and inoculated in the plates.[51] The plates were incubated for 24 hours at 37 °C. After incubation, 10 μL of freshly prepared Alamar blue (Himedia) was added to each well of the plate, and plates were further incubated at 37 °C for 30 minutes. After incubation, the fluorescence was measured at excitation/emission of 540–570/580–610 nm. The percentage inhibition and viability were calculated for the controls, and the Gompertz curve was utilized to estimate the minimum inhibitory concentration.
A general note: In broth dilution the organism is exposed to a series of concentrations in liquid medium.

The test system of experiment [3] is E. coli ATCC 25922. Put plainly: MIC, broth microdilution (CLSI), Alamar blue. Format: cell-based. Particulars: E. coli ATCC 25922, 24 hours at 37 °C, read-out: Minimum inhibitory concentration (MIC) E. coli.
Excerpt: as §1, §2, §3

Experiment [4] deals with P. aeruginosa ATCC 27853. In words: MIC, broth microdilution (CLSI), Alamar blue. To be noted: P. aeruginosa ATCC 27853, 24 hours at 37 °C, read-out: Minimum inhibitory concentration (MIC) P. aeruginosa. The experiment is classed as cell-based.
Excerpt: as §1, §2, §3

Another experiment deals with MRSA ATCC 15187. In words: MBC, plating on MHA. Format: cell-based, Methicillin-resistant S. aureus. Particulars: Staphylococcus aureus; more than 99.9% of the cells killed; read-out: Minimum bactericidal concentration (MBC) MRSA.
Excerpt: as §1
(§4) MBC is defined as the lowest concentration of the compound at which more than 99.9% of the cells were killed compared with the growth control. The minimum compound concentration at which no visible bacterial growth was observed was taken as the Minimum Bactericidal Concentration (MBC).[50]

Experiment [5] has as its system S. aureus. Put plainly: Cell integrity analysis by PI staining. To be noted: 1× MIC and 2× MIC, 30 minutes, compared to the untreated cells. The experiment is classed as cell-based. On the procedure:
Propidium iodide (PI) indicates cell integrity, emitting a red fluorescence signal. PI's polar and hydrophilic nature impedes its entrance within active bacterial cells, but within perforated dead cells, it can easily bind to nucleic acid (DNA/RNA).[32,60]S. aureus bacterial cells were incubated overnight at 37 °C and diluted further 1 : 100 in Mueller Hinton Broth (MHB). The diluted culture was grown until its OD600 reached 0.5. […] Vancomycin was used as a drug control at 1× MIC, while untreated bacterial cells were used as growth control. The samples were centrifuged at 5000 rpm speed at 4 °C temperature for 10 minutes, and the pellet was washed two times using phosphate-buffered saline pH-7.4 (PBS). To stain the sample (dead cells), 3 μL PI of 20.0 mM concentration was added to the 1 mL solution (pellet resuspended in PBS) and incubated for 15 minutes. To remove the dye, the samples were centrifuged again and washed with PBS once. The final pellet was resuspended in 1 mL of PBS, and 30 μL of each undiluted sample was used to obtain fluorescence imaging. The cells were observed under fluorescence microscopy.[61]

Experiment [6] relates to S. aureus ATCC 29213. Put plainly: Time-kill assay. Format: cell-based.
Experiment [7] relates to S. aureus ATCC 29213. Put plainly: MBC, plating on MHA. Particulars: Staphylococcus aureus, ATCC29213; more than 99.9% of the cells killed; read-out: Minimum bactericidal concentration (MBC) S. aureus. The experiment is classed as cell-based.
Excerpt: as §1, §4

Experiment [8] deals with E. coli ATCC 25922. In words: MBC, plating on MHA. The experiment is classed as cell-based. To be noted: Escherichia coli, ATCC25922; more than 99.9% of the cells killed; read-out: Minimum bactericidal concentration (MBC) E. coli.
Excerpt: as §1, §4

Experiment [9] deals with P. aeruginosa ATCC 27853. In words: MBC, plating on MHA. Format: cell-based. To be noted: Pseudomonas aeruginosa, ATCC27853; more than 99.9% of the cells killed; read-out: Minimum bactericidal concentration (MBC) P. aeruginosa.
Excerpt: as §1, §4

The structures appear in SMILES notation. Converted amounts (≈) assume the structure as drawn. “Also recorded” adds a separate entry of the source. Like-named read-outs stand apart in the source and are kept apart here.

Consider `CC(C)=CCc1c(O)ccc2c1O/C(=C\c1ccc(O)cc1)C2=O` [IBC-3, (Z)-6-hydroxy-2-(4-hydroxybenzylidene)-7-(3-methylbut-2-en-1-yl)benzofuran-3(2H)-one], for which the “MIC combination (compound)” value in the experiment with S. aureus [1] (MIC of the compound in combination with ciprofloxacin) and in the experiment with S. aureus [1] (MIC of the compound in combination with vancomycin) was 5 µM each time. Besides, the MIC in the experiment with S. aureus [1] (Staphylococcus aureus, checkerboard, substance alone, read-out: MIC alone) was determined as 10 µM; with S. aureus ATCC 29213 [2] it was 10 µM (≈ 3.22 µg/mL); in the experiment with S. aureus ATCC 29213 [2] (Staphylococcus aureus, ATCC29213), 10 µM (≈ 3.22 µg/mL); in the experiment with E. coli ATCC 25922 [3] it was 23 µM (≈ 7.41 µg/mL); in the experiment with E. coli ATCC 25922 [3] (Escherichia coli, ATCC25922), 23 µM (≈ 7.41 µg/mL); in the experiment with P. aeruginosa ATCC 27853 [4] it was 24 µM (≈ 7.74 µg/mL). Besides, in the experiment with P. aeruginosa ATCC 27853 [4] (Pseudomonas aeruginosa, ATCC27853, 24 h), the MIC was determined as 24 µM (≈ 7.74 µg/mL). Also, in the experiment with S. aureus [1] (compound with ciprofloxacin), the Outcome of combination entry is recorded as “Indifference (The FICI range of 0.5 to 4 indicates indifference)”. In addition, the “∑ FICI” value is 1 in the experiment on S. aureus [1] (compound with ciprofloxacin) and 0.5 with S. aureus [1] (compound with vancomycin). Also, the MBC is 25 µM (≈ 8.06 µg/mL) in the experiment on MRSA ATCC 15187, 25 µM (≈ 8.06 µg/mL) in the experiment on S. aureus ATCC 29213 [7], 25 µM (≈ 8.06 µg/mL) with E. coli ATCC 25922 [8] and 100 µM (≈ 32.2 µg/mL) in the experiment on P. aeruginosa ATCC 27853 [9]. For the same molecule, the “PI red fluorescence (cell integrity)” value in the experiment with S. aureus [5] is “notably increased intensity of red fluorescence”. In addition, the “CFU count of S. aureus ATCC 29213 in time-kill study” value with S. aureus ATCC 29213 [6] (2× MIC and 4× MIC, with increasing time (up to 24 h)) is recorded as “below the detection limit”. For the same molecule, in the experiment with S. aureus ATCC 29213 [6] (MIC, 2× MIC, 4× MIC, 1 h to 24 h, 37 °C), the Time-kill profile result is “concentration-dependent killing effect; also recorded: concentration and time-dependent killing effects”.

The values are drawn from publication PMC11484510, “Antibacterial activity of structurally diverse natural prenylated isobavachalcone derivatives” (RSC Advances, 2024).
